Measured values taken from US20250032580A1, “USE OF ADNF POLYPEPTIDES IN THERAPY” (RAMOT AT TEL-AVIV UNIVERSITY LTD., priority 2021, published 2025).

Columns and labels:
N1E-115 cells = test: Polymerized vs. soluble tubulin assay; assay type: cell-based, mouse; details: zinc 400 μM, 4 h, peptide 10^−12 M
Description: Polymerized vs. soluble tubulin assay—To quantify tubulin polymerization and Tau-MT association, a simple assay was performed as previously described. The cells grown to confluence in six-well plates were washed with MT buffer (80 mM PIPES pH 6.8, 1 mM MgCl^2, 2 mM EGTA, 5% Glycerol) and lysed at room temperature for 5 min through centrifugation (300 g), with 150 μl of MT buffer with 0.5% Triton X-100 to extract soluble (cytosolic) tubulin (S). The pelleted cells were rinsed once again with an equal volume of modified RIPA lysis buffer (50 mM Tris-HCL pH 7.4, 150 mM NaCl, 2 mM EGTA, 1% Triton X-100, 0.1% SDS, 0.1% sodium Deoxycholate) to collect the polymerized (cytoskeletal) tubulin (P). The cytosolic and cytoskeletal fractions were each mixed with sample buffer and heated at 95° C. for 5 min. An equal volume of each fraction was analyzed by immunoblotting with Tau, tubulin and actin antibodies, and the results following ECL development were quantified by densitometry (GelQuant.NET software provided by biochemlabsolutions(dot)com).
It is known that in the presence of extracellular zinc NAP protects MT against degradation by promoting Tau binding to the MT shaft. Polymerized vs. soluble tubulin assay was effected to compare protective activities of NAP and SKIP against MT degradation and Tau-MT dissociation (FIGS. 11F-G). After treatments with zinc (400 μM, 4 h) with and without NAP or SKIP (10^−12 M, 4 h) the cellular-tubulin pool was separated into polymerized and soluble tubulin fractions. The amount of Tau, tubulin, and actin was identified by immunoblotting (FIG. 11F), followed by densitometric quantification (FIG. 11G).

Tyr mice [1] = test: AT8 (hyperphosphorylated Tau) immunohistochemistry; assay type: in vivo, mouse; design: key to NAP efficacy: tauopathy, hyperphosphorylated Tau deposits: corrections by NAP treatment (+)
Description: AT8 Immunohistochemistry—experiment was performed as previously described (100). Mice were treated for 6 weeks with daily intranasal DD/NAP and were euthanized at 10.21±0.05 weeks of age.

Tyr mice [2] = test: CatWalk gait analysis; assay type: in vivo, mouse; design: key to NAP efficacy: motor impediments: corrections by NAP treatment (+)
Description: Animals—Animals were housed under a 12-hour light/dark cycle, with food and water ad-libitum. Mouse pups were subcutaneously administrated with NAP [having an amino acid sequence NAPVSIPQ (SEQ ID NO: 2), 25 μg NAP/1 ml saline] as described (8, 12). At 21 days of age mice were administered daily intranasal NAP in vehicle solution (“DD”—7.5 mg/ml of NaCl, 1.7 mg/ml of citric acid, 3 mg/ml of disodium phosphate dihydrate, and 0.2 mg/ml of 50% benzalkonium chloride solution) (0.5 μg NAP/5p1 DD) (8, 9, 12, and U.S. Pat. No. 10,912,819 to Gozes). These mice continued to behavioral analysis as described hereinbelow. The noninvasive intranasal route was chosen as these experiments required daily handling and administration. Age (weeks) of mice during behavioral experiments (mean±SEM) was as follows: Catwalk-9.23±0.15, grooming-10±0.15, social approach-10.5±0.12, odor-discrimination-12.12±0.13, hanging-wire-13±0.14, hotplate-13.18±0.13. Group size was determined following previous experiments (12). Pups were randomly allocated to either the NAP or DD group according to sex and genotype. All procedures involving animals were conducted under the supervision and approval of the institutional animal care and use committee of Tel Aviv University and the Israeli Ministry of Health.
Catwalk—Was performed as previously described (12).
CatWalk: Briefly, The CatWalk XT (Noldus Inc. Leesburg, VA) was used to analyze the gait of unforced, moving mice^10 Mice had to cross the runway of the CatWalk XT apparatus in a consistent manner, and a successful run was defined when an animal ran the track without any interruption or hesitation. Every mouse was tested until 3 successful runs were achieved.
Base of support is the average width between either the front paws or the hind paws. Swing (sec) or swing phase is the duration in seconds of no contact of a paw with the glass plate. Swing Speed is the speed (Distance Unit/second) of the paw during Swing. Max Contact Max Intensity is the maximum Intensity at Max Contact of a paw. Intensity ranges from 0 to 255 in arbitrary units. The intensity of a print depends on the degree of contact between a paw and the glass plate and increases with increasing weight. Therefore, Intensity is a measure of weight put on the glass plate.
The Intensity parameter is used to assess the effects of neuropathic pain, including mechanical allodynia. Max Contact Mean Intensity is the mean Intensity of a paw at Max Contact. Print length is the length (horizontal direction) of the complete print. The complete print is the sum of all contacts with the glass plate, as if the animal's paw would have been inked. Print width is the width (vertical direction) of the complete paw. Print area is the surface area of the complete print. Max Intensity is the maximum Intensity of the complete paw. Mean intensity is the mean Intensity of the complete paw.

[3] = test system: SHANK3 mouse model (InsG3680 mutation); test: Social recognition test; assay type: in vivo; details: NAP-treated SHANK3 mouse model
Description: To this end, mice with the ASD-linked InsG3680 mutation were used. Two behavioral assessments were performed on make mice: • 1) Open field behavior attesting to anxiety and depression (Open field behavioral assessment technology was previously described, e.g.); and • 2) Social recognition behavior, related to autistic traits (the social recognition test was previously described, e.g..
In the social recognition test, the results measured both time exploring and frequency exploring the mouse or cup, either directly or in the chamber where the mouse or cup only are present (FIG. 13).

[4] = test system: adult compromised patients; details: cited from earlier work
[5] = male Tyr mice, 6 weeks daily intranasal NAP

CC[C@H](C)[C@H](NC(=O)[C@H](CO)NC(=O)[C@@H](NC(=O)[C@@H]1CCCN1C(=O)[C@H](C)NC(=O)[C@@H](N)CC(N)=O)C(C)C)C(=O)N1CCC[C@H]1C(=O)N[C@@H](CCC(N)=O)C(=O)O [NAP, NAPVSIPQ]
Protection against Tau dissociation from MTs (N1E-115 cells): only NAP exhibited protection
Protection of polymerized tubulin against zinc-induced decay (N1E-115 cells): protected against zinc-induced decay
Combined AT8- and AT180-positive cells (Tyr mice [1]; Tyr mice, both sexes, data not shown): correction by NAP in both sexes
NAP efficacy: tauopathy, hyperphosphorylated Tau deposits (Tyr mice [1]; Tyr mouse, first symbol of cell): +/+
AT8 staining (Tyr mice [1]; WT males, data not shown): did not display a NAP effect
Decrease of AT8 positive cells in the hippocampus (Tyr mice [1]; [5]): ~2.57 fold
Reversal of AT8 staining in the visual cortex (Tyr mice [1]; [5]): ~2 fold
Front base of support (Tyr mice [2]; Tyr mice, males and females): NAP correcting this phenotype in males
NAP efficacy: motor impediments (Tyr mice [2]; Tyr mouse (gait), first symbol of cell): +/(gait)+
Gait parameters (Tyr mice [2]; WT mice, data not shown): No major NAP effect
Intensity parameters (gait) (Tyr mice [2]; female Tyr mice): significant NAP correction
Swing speed and swing duration (Tyr mice [2]; female Tyr mice): ameliorated by NAP
Print width (Tyr mice [2]; female Tyr mice, FIG. 1F): significant NAP correction effect
Print length and area (Tyr mice [2]; male Tyr mice, daily intranasal NAP): significant NAP recovery
Social recognition, mouse vs cup exploration [3]: normalization of behavior
Clinical efficacy ([4]; adult patients): enhancement of cognitive function and functional activities of daily living
Safety and tolerance ([4]; hundreds of adult compromised patients): proven safety and tolerance
